Assay results published in patent US12043599B2, “Herbicidal compounds” (SYNGENTA PARTICIPATIONS AG, priority 2018, dated 2024).

Key:
Type in all cases: in vivo
Conditions in all cases: 250 g/h, evaluated after 13 days
[1] = tested on: Alopecurus myosuroides (ALOMY); assay: Pre-emergence herbicidal glasshouse test, percentage damage
Method in brief: (§1)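 Seeds are sown in pots, grown at 24/16 °C day/night with 14 h light and 65% humidity, then sprayed at day 1 (pre-emergence) or day 8 (post-emergence). The rate is 250 g/h in acetone/water 50:50 with 0.5% Tween 20. Damage is assessed 13 days later on a 1–5 scale.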

[2] = tested on: Avena fatua (AVEFA); assay: as above
Method in brief: as §1

[3] = tested on: Echinochloa crus-galli (ECHCG); assay: as above
Method in brief: as §1

[4] = tested on: Lolium perenne (LOLPE); assay: as above
Method in brief: as §1

[5] = tested on: Setaria faberi (SETFA); assay: as above
Method in brief: as §1

[6] = tested on: Setaria faberi (SETFA); assay: Post-emergence herbicidal glasshouse test, percentage damage
Method in brief: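 Percentage damage was scored 13 days after treatment on a five-point scale (1=0-19% to 5=80-100%). Treatments were post-emergence sprays on 8-day-old wheat, barley and SETFA plants in a glasshouse (24/16 °C day/night, 14 h light, 65% humidity), using acetone/water 50:50 with 0.5% Tween 20 at the stated rates. Wheat additionally received cloquintocet-mexyl safener at 50 g/ha.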

[7] = tested on: Alopecurus myosuroides (ALOMY); assay: as above
Method in brief: as §1

[8] = tested on: Avena fatua (AVEFA); assay: as above
Method in brief: as §1

[9] = tested on: Echinochloa crus-galli (ECHCG); assay: as above
Method in brief: as §1

[10] = tested on: Lolium perenne (LOLPE); assay: as above
Method in brief: as §1

Compound	ALOMY PRE percentage damage (five point scale) [1]	AVEFA PRE percentage damage (five point scale) [2]	ECHCG PRE percentage damage (five point scale) [3]	LOLPE PRE percentage damage (five point scale) [4]	SETFA PRE percentage damage (five point scale) [5]	SETFA POST percentage damage (five point scale) [6]	ALOMY POST percentage damage (five point scale) [7]	AVEFA POST percentage damage (five point scale) [8]	ECHCG POST percentage damage (five point scale) [9]	LOLPE POST percentage damage (five point scale) [10]
CC#Cc1cc(C)c(C2=C(OC(=O)C3CCC3)CC3(CCN(C(=O)C4CCC4)CC3)CC2=O)c(C)c1 [Compound P3]	5 (5=80-100%)	5 (5=80-100%)	5 (5=80-100%)	5 (5=80-100%)	5 (5=80-100%)	5 (5=80-100%)	5 (5=80-100%)	5 (5=80-100%)	5 (5=80-100%)	5 (5=80-100%)
CC#Cc1cc(C)c(C2=C(OC(=O)c3ccncc3)CC3(CCN(C(=O)c4ccncc4)CC3)CC2=O)c(C)c1 [Compound P4]	5 (5=80-100%)	4 (4=60-79%)	5 (5=80-100%)	5 (5=80-100%)	5 (5=80-100%)	5 (5=80-100%)	5 (5=80-100%)	5 (5=80-100%)	5 (5=80-100%)	5 (5=80-100%)
CC#Cc1cc(C)c(C2=C(OC(=O)C(C)OC)CC3(CCN(C(=O)C(C)OC)CC3)CC2=O)c(C)c1 (centres unmarked) [Compound P6]	5 (5=80-100%)	5 (5=80-100%)	5 (5=80-100%)	5 (5=80-100%)	5 (5=80-100%)	5 (5=80-100%)	5 (5=80-100%)	5 (5=80-100%)	5 (5=80-100%)	5 (5=80-100%)
CC#Cc1cc(C)c(C2=C(OC(=O)OC)CC3(CCN(S(=O)(=O)CC)CC3)CC2=O)c(C)c1 [Compound P7, [9-(2,6-dimethyl-4-prop-1-ynyl-phenyl)-3-ethylsufonyl-10-oxo-3-azaspiro[5.5]undec-8-en-8-yl] methyl carbonate]	5 (5=80-100%)	5 (5=80-100%)	5 (5=80-100%)	5 (5=80-100%)	5 (5=80-100%)	5 (5=80-100%)	5 (5=80-100%)	5 (5=80-100%)	5 (5=80-100%)	5 (5=80-100%)
CC#Cc1cc(C)c(C2=C(OC(C)=O)CC3(CCN(C(N)=O)CC3)CC2=O)c(C)c1 [Compound P9]	5 (5=80-100%)	4 (4=60-79%)	5 (5=80-100%)	5 (5=80-100%)	5 (5=80-100%)	5 (5=80-100%)	5 (5=80-100%)	5 (5=80-100%)	5 (5=80-100%)	5 (5=80-100%)
CC#Cc1cc(C)c(C2=C(OC(=O)OC)CC3(CCN(C(=O)NC(=O)C(C)(C)C)CC3)CC2=O)c(C)c1 [Compound P10]	5 (5=80-100%)	5 (5=80-100%)	5 (5=80-100%)	5 (5=80-100%)	5 (5=80-100%)	5 (5=80-100%)	5 (5=80-100%)	5 (5=80-100%)	5 (5=80-100%)	5 (5=80-100%)
CC#Cc1cc(C)c(C2=C(OC(=O)OC)CC3(CCN(S(=O)(=O)C(F)(F)F)CC3)CC2=O)c(C)c1 [Compound P11]	5 (5=80-100%)	3 (3=40-59%)	5 (5=80-100%)	5 (5=80-100%)	5 (5=80-100%)	5 (5=80-100%)	5 (5=80-100%)	5 (5=80-100%)	5 (5=80-100%)	4 (4=60-79%)
CC#Cc1cc(C)c(C2=C(OC(C)=O)CC3(CCN(C(=O)NC(C)=O)CC3)CC2=O)c(C)c1 [Compound P12]	4 (4=60-79%)	4 (4=60-79%)	5 (5=80-100%)	5 (5=80-100%)	5 (5=80-100%)	5 (5=80-100%)	5 (5=80-100%)	5 (5=80-100%)	5 (5=80-100%)	5 (5=80-100%)
CC#Cc1cc(C)c(C2=C(OC(=O)OC)CC3(CCN(C(=O)NC(C)(C)C)CC3)CC2=O)c(C)c1 [Compound P13]	5 (5=80-100%)	5 (5=80-100%)	5 (5=80-100%)	5 (5=80-100%)	5 (5=80-100%)	5 (5=80-100%)	5 (5=80-100%)	5 (5=80-100%)	5 (5=80-100%)	5 (5=80-100%)
CC#Cc1cc(C)c(C2=C(OC(=O)OC)CC3(CCN(C(=O)NOC)CC3)CC2=O)c(C)c1 [Compound P14]	5 (5=80-100%)	5 (5=80-100%)	5 (5=80-100%)	5 (5=80-100%)	5 (5=80-100%)	5 (5=80-100%)	5 (5=80-100%)	5 (5=80-100%)	5 (5=80-100%)	5 (5=80-100%)
CC#Cc1cc(C)c(C2=C(OC(=O)OC)CC3(CCN(C(=O)NC4CC4)CC3)CC2=O)c(C)c1 [Compound P15]	5 (5=80-100%)	5 (5=80-100%)	5 (5=80-100%)	5 (5=80-100%)	5 (5=80-100%)	5 (5=80-100%)	5 (5=80-100%)	5 (5=80-100%)	5 (5=80-100%)	5 (5=80-100%)
